Molecular target: T1, human GLP-1R (Homo sapiens, UniProt P43220)
T1 construct: host or cells: HEK293
Test: GLP-1R cAMP assay (Example B1a, HTRF, 30 min at room temperature)
Assay type: cell-based
Settings: cAMP accumulation in HEK293 expressing human GLP-1R, no BETP, 30 min room temperature (Method B1a, compounds ID 1-609), Table 1; read-out: EC50
How it was run: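 Competitive HTRF read-out of cAMP after 30 min room-temperature stimulation, BETP absent, of human GLP-1R-HEK293 cells (1,000/well) in HEPES buffer with 500 μM IBMX and 0.1% BSA. Activation normalised to GLP-1(7-37) positive control. EC50 from 4-parameter non-linear regression.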

T1 sequence (P43220 24-463): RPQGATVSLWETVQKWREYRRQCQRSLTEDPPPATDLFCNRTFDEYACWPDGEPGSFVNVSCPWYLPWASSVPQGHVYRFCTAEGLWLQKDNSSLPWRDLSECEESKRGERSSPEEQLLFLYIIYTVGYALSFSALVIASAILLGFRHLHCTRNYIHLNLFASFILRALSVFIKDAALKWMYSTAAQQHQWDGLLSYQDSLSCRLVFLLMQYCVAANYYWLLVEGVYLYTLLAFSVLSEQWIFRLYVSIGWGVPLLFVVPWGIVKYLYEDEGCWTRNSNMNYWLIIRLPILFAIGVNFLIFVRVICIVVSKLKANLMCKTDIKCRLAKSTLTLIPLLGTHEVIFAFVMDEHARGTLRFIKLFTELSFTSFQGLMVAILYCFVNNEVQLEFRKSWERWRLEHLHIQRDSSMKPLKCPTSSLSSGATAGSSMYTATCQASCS

Going from Cc1cc(-n2nc3c(c2-n2ccn(-c4ccc5ccncc5c4F)c2=O)[C@@H]2CCC[C@H](C3)N2S(=O)(=O)c2cc3cc([C@H]4CCOC(C)(C)C4)ccc3n2[C@]2(c3noc(=O)[nH]3)C[C@@H]2C)cc(C)c1F [Compound 605, 3-[(1R,2S)-1-[5-[(4S)-2,2-dimethyltetrahydropyran-4-yl]-2-[[(1S,8R)-4-(4-fluoro-3,5-dimethyl-phenyl)-3-[3-(8-fluoro-7-isoquinolyl)-2-oxo-imidazol-1-yl]-4,5,12-triazatricyclo[6.3.1.02,6]dodeca-2,5-dien-12-yl]sulfonyl]indol-1-yl]-2-methyl-cyclopropyl]-4H-1,2,4-oxadiazol-5-one] to CCS(=N)(=O)c1ccc(-n2ccn(-c3c4c(nn3-c3cc(C)c(F)c(C)c3)C[C@H]3CC[C@@H]4N3C(=O)c3cc4cc([C@H]5CCOC(C)(C)C5)ccc4n3[C@@]3(c4noc(=O)[nH]4)C[C@@H]3C)c2=O)c(F)c1 (stereo partly drawn) [Compound 428, 3-((1S,2S)-1-(5-((S)-2,2-dimethyltetrahydro-2H-pyran-4-yl)-2-((4S,7R)-3-(3-(4-(ethylsulfonimidoyl)-2-fluorophenyl)-2-oxo-2,3-dihydro-1H-imidazol-1-yl)-2-(4-fluoro-3,5-dimethylphenyl)-2,4,5,6,7,8-hexahydro-4,7-epiminocyclohepta [c]pyrazole-9-carbonyl)-1H-indol-1-yl)-2-methylcyclopropyl)-1,2,4-oxadiazol-5(4H)-one], the EC50 falls from at least 10000 nM to 94.8 nM.

Cc1cc(-n2nc3c(c2-n2ccn(-c4ccc5c(c4)N(C)C(=O)C54CC4)c2=O)[C@@H]2CCC[C@H](C3)N2C(=O)c2cc3cc([C@H]4CCOC(C)(C)C4)ccc3n2[C@@]2(c3noc(=O)[nH]3)C[C@@H]2C)cc(C)c1F [Compound 545, 3-[(1S,2S)-1-[5-[(4S)-2,2-dimethyltetrahydropyran-4-yl]-2-[(1S,8R)-4-(4-fluoro-3,5-dimethyl-phenyl)-3-[3-(l′-methyl-2′-oxo-spiro[cyclopropane-1,3′-indoline]-6′-yl)-2-oxo-imidazol-1-yl]-4,5,12-triazatricyclo[6.3.1.02,6]dodeca-2,5-diene-12-carbonyl]indol-1-yl]-2-methyl-cyclopropyl]-4H-1,2,4-oxadiazol-5-one] and Cc1cc(-n2nc3c(c2-n2ccn(-c4ccc5c(cnn5C)c4C)c2=O)[C@@H]2CC[C@H](C3)N2C(=O)c2cc3cc([C@H]4CCOC(C)(C)C4)ccc3n2[C@@]2(c3noc(=O)[nH]3)C[C@@H]2C)cc(C)c1F [Compound 305, 3-((1S,2S)-1-(2-((45,7R)-3-(3-(1,4-dimethyl-1H-indazol-5-yl)-2-oxo-2,3-dihydro-1H-imidazol-1-yl)-2-(4-fluoro-3,5-dimethylphenyl)-2,4,5,6,7,8-hexahydro-4,7-epiminocyclohepta [c]pyrazole-9-carbonyl)-5-((S)-2,2-dimethyltetrahydro-2H-pyran-4-yl)-1H-indol-1-yl)-2-methylcyclopropyl)-1,2,4-oxadiazol-5 (4H)-one] are within 1.5-fold of each other in EC50: 307 nM for the first, 206 nM for the second.

Compared with COc1cc2c(F)c(-n3ccn(-c4c5c(nn4-c4cc(C)c(F)c(C)c4)C[C@H]4CC[C@@H]5N4C(=O)c4cc5cc([C@H]6CCOC(C)(C)C6)ccc5n4[C@@]4(c5noc(=O)[nH]5)C[C@@H]4C)c3=O)ccn2n1 [Compound 431, 3-((1S,2S)-1-(5-((S)-2,2-dimethyltetrahydro-2H-pyran-4-yl)-2-((4S,7R)-3-(3-(4-fluoro-2-methoxypyrazolo[1,5-a]pyridin-5-yl)-2-oxo-2,3-dihydro-1H-imidazol-1-yl)-2-(4-fluoro-3,5-dimethylphenyl)-2,4,5,6,7,8-hexahydro-4,7-epiminocyclohepta [c]pyrazole-9-carbonyl)-1H-indol-1-yl)-2-methylcyclopropyl)-1,2,4-oxadiazol-5 (4H)-one], Cc1cc(-n2nc3c(c2-n2ccn(-c4ccc5c(cnn5C)c4F)c2=O)C2CCC([C@@H]3F)N2C(=O)c2cc3cc([C@H]4CCOC(C)(C)C4)ccc3n2[C@@]2(c3noc(=O)[nH]3)C[C@@H]2C)cc(C)c1F (stereo partly drawn) [Compound 507, cis-3-((1S,2S)-1-(5-((S)-2,2-dimethyltetrahydro-2H-pyran-4-yl)-2-(8-fluoro-3-(3-(4-fluoro-1-methyl-1H-indazol-5-yl)-2-oxo-2,3-dihydro-1H-imidazol-1-yl)-2-(4-fluoro-3,5-dimethylphenyl)-2,4,5,6,7,8-hexahydro-4,7-epiminocyclohepta [c]pyrazole-9-carbonyl)-1H-indol-1-yl)-2-methylcyclopropyl)-1,2,4-oxadiazol-5 (4H)-one] is 5-fold higher in EC50: 125 nM for the first, 630 nM for the second. The first is the more potent here.

Compared with Cc1cc(-n2nc3c(c2-n2ccn(-c4ccc5[nH]ncc5c4F)c2=O)[C@@H]2CC[C@H](C3)N2C(=O)c2cc3cc([C@H]4CCOC5(CC5)C4)ccc3n2[C@@]2(c3noc(=O)[nH]3)C[C@@H]2C)cc(C)c1F [Compound 436, 3-((1S,2S)-1-(2-((4S,7R)-3-(3-(4-fluoro-1H-indazol-5-yl)-2-oxo-2,3-dihydro-1H-imidazol-1-yl)-2-(4-fluoro-3,5-dimethylphenyl)-2,4,5,6,7,8-hexahydro-4,7-epiminocyclohepta [c]pyrazole-9-carbonyl)-5-((S)-4-oxaspiro[2.5]octan-7-yl)-1H-indol-1-yl)-2-methylcyclopropyl)-1,2,4-oxadiazol-5 (4H)-one], CC(=O)NC[C@]1(n2c(C(=O)N3[C@@H]4CC[C@H]3c3c(nn(-c5cc(C)c(F)c(C)c5)c3-n3ccn(-c5ccc6c(cnn6C)c5F)c3=O)C4)cc3cc([C@H]4CCOC(C)(C)C4)ccc32)C[C@@H]1C [Compound 243, N-[[(1S,2S)-1-[5-[(4S)-2,2-dimethyltetrahydropyran-4-yl]-2-[(1S,8R)-4-(4-fluoro-3,5-dimethyl-phenyl)-3-[3-(4-fluoro-1-methyl-indazol-5-yl)-2-oxo-imidazol-1-yl]-4,5,11-triazatricyclo[6.2.1.02,6]undeca-2,5-diene-11-carbonyl]indol-1-yl]-2-methyl-cyclopropyl]methyl]acetamide] is 11-fold higher in EC50: 70 nM for the first, 757 nM for the second.

Going from Cc1cc(-n2nc3c(c2N2C(=O)CN(c4ccc5c(cnn5C)c4F)C2=O)[C@H](C)N(C(=O)c2cc4cc([C@H]5CCOC(C)(C)C5)ccc4n2[C@@]2(c4noc(=O)[nH]4)C[C@@H]2C)CC3)cc(C)c1F [Compound 23, 3-((S)-5-(5-((S)-2,2-dimethyltetrahydro-2H-pyran-4-yl)-1-((1S,2S)-2-methyl-1-(5-oxo-4,5-dihydro-1,2,4-oxadiazol-3-yl)cyclopropyl)-1H-indole-2-carbonyl)-2-(4-fluoro-3,5-dimethylphenyl)-4-methyl-4,5,6,7-tetrahydro-2H-pyrazolo[4,3-c]pyridin-3-yl)-1-(4-fluoro-1-methyl-1H-indazol-5-yl) imidazolidine-2,4-dione] to Cc1cc(-n2nc3c(c2-c2ncn(-c4ccc5c(cnn5C)c4F)c2C)[C@H](C)N(C(=O)c2cc4cc(C5=CCC(F)(F)CC5)ccc4n2C2(c4noc(=O)[nH]4)CC2)CC3)cc(C)c1F [Compound 105, 3-[1-[5-(4,4-difluorocyclohexen-1-yl)-2-[(4S)-2-(4-fluoro-3,5-dimethyl-phenyl)-3-[1-(4-fluoro-1-methyl-indazol-5-yl)-5-methyl-imidazol-4-yl]-4-methyl-6,7-dihydro-4H-pyrazolo[4,3-c]pyridine-5-carbonyl]indol-1-yl]cyclopropyl]-4H-1,2,4-oxadiazol-5-one], the EC50 rises from 361 nM to over 10000 nM.

Reference: patent US12617783B2, “Heterocyclic GLP-1R agonists” (BIOMEA FUSION, INC., priority 2024, dated 2026)
